Experimental data from the supplement of paper PMC11451515.

Columns and labels:
Settings in all cases: 48 h
[1] = system: NOMO1; assay: cell viability relative to DMSO control; higher = less cytotoxic
Summary of the method: (§1)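 Viability was expressed as a per-plate percentage of DMSO wells, with cell-free wells as background. Leukemia cells (NOMO1 or SEM at 500 cells/well, P12-Ichikawa at 1000 cells/well) were adapted for at least four passages in each medium and seeded in 1536-well plates (5 μl). Library compounds in DMSO were pin-dosed over an 11-point threefold series from 47 μM to 0.79 nM, and CellTiter-Glo One luminescence was read after 48 h at 37°C.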

[2] = system: P12-Ichikawa; assay: as above
Summary of the method: as §1

[3] = system: SEM cells; assay: as above
Summary of the method: as §1

[4] = system: NOMO1; assay: AUC of viability dose-response curve (% viability x log10 dose units); higher = less sensitive
Summary of the method: (§2)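 Viability of medium-adapted leukemia cells was measured by CellTiter-Glo One luminescence after 48 h at 37°C with library compounds in DMSO. Doses were 11 threefold steps from 47 μM to 0.79 nM, in 1536-well plates at 500 or 1000 cells/well. Signals were normalised per plate to DMSO and cell-free wells and fitted with a four-parameter log-logistic model on log10 dose. Area under the curve was integrated by trapezoidal rule, with curves exceeding full viability scaled and failed quality-control curves removed.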

[5] = system: P12-Ichikawa; assay: as above
Summary of the method: as §2

[6] = system: SEM cells; assay: as above
Summary of the method: as §2

[7] = HPLM + 10% dialyzed FBS, 0.000781 µM
[8] = HPLM + 10% dialyzed FBS, 0.00234 µM
[9] = HPLM + 10% dialyzed FBS, 0.00702 µM
[10] = HPLM + 10% dialyzed FBS, 0.0211 µM
[11] = HPLM + 10% dialyzed FBS, 0.0632 µM
[12] = HPLM + 10% dialyzed FBS, 0.19 µM
[13] = HPLM + 10% dialyzed FBS, 0.569 µM
[14] = HPLM + 10% dialyzed FBS, 1.71 µM
[15] = HPLM + 10% dialyzed FBS, 5.12 µM
[16] = HPLM + 10% dialyzed FBS, 15.4 µM
[17] = HPLM + 10% dialyzed FBS, 46.1 µM
[18] = RPMI 5 mM glucose + 10% FBS, 0.000781 µM
[19] = RPMI 5 mM glucose + 10% FBS, 0.00234 µM
[20] = RPMI 5 mM glucose + 10% FBS, 0.00702 µM
[21] = RPMI 5 mM glucose + 10% FBS, 0.0211 µM
[22] = RPMI 5 mM glucose + 10% FBS, 0.0632 µM
[23] = RPMI 5 mM glucose + 10% FBS, 0.19 µM
[24] = RPMI 5 mM glucose + 10% FBS, 0.569 µM
[25] = RPMI 5 mM glucose + 10% FBS, 1.71 µM
[26] = RPMI 5 mM glucose + 10% FBS, 5.12 µM
[27] = RPMI 5 mM glucose + 10% FBS, 15.4 µM
[28] = RPMI 5 mM glucose + 10% FBS, 46.1 µM
[29] = RPMI 5 mM glucose + 10% dialyzed FBS, 0.000781 µM
[30] = RPMI 5 mM glucose + 10% dialyzed FBS, 0.00234 µM
[31] = RPMI 5 mM glucose + 10% dialyzed FBS, 0.00702 µM
[32] = RPMI 5 mM glucose + 10% dialyzed FBS, 0.0211 µM
[33] = RPMI 5 mM glucose + 10% dialyzed FBS, 0.0632 µM
[34] = RPMI 5 mM glucose + 10% dialyzed FBS, 0.19 µM
[35] = RPMI 5 mM glucose + 10% dialyzed FBS, 0.569 µM
[36] = RPMI 5 mM glucose + 10% dialyzed FBS, 1.71 µM
[37] = RPMI 5 mM glucose + 10% dialyzed FBS, 5.12 µM
[38] = RPMI 5 mM glucose + 10% dialyzed FBS, 15.4 µM
[39] = RPMI 5 mM glucose + 10% dialyzed FBS, 46.1 µM
[40] = RPMI 5 mM glucose + 10% dialyzed FBS

COc1cc(N2CCC(C(N)=O)CC2)ccc1Nc1nc(N)c(Cl)c(Nc2ccccc2[S+](=O)([O-])C(C)C)n1
cell viability [1, 7]: 85.6%
cell viability [1, 8]: 79.1%
cell viability [1, 9]: 99.3%
cell viability [1, 10]: 98.3%
cell viability [1, 11]: 84.8%
cell viability [1, 12]: 96.5%
cell viability [1, 13]: 99.6%
cell viability [1, 14]: 87.1%
cell viability [1, 15]: 66%
cell viability [1, 16]: 46.7%
cell viability [1, 17]: 2.93%
cell viability [1, 18]: 91.9%
cell viability [1, 19]: 83.5%
cell viability [1, 20]: 94%
cell viability [1, 21]: 89.9%
cell viability [1, 22]: 89%
cell viability [1, 23]: 96.4%
cell viability [1, 24]: 92%
cell viability [1, 25]: 91.2%
cell viability [1, 26]: 75.5%
cell viability [1, 27]: 65.9%
cell viability [1, 28]: 2.25%
cell viability [1, 29]: 83.9%
cell viability [1, 30]: 94.2%
cell viability [1, 31]: 90.9%
cell viability [1, 32]: 80.1%
cell viability [1, 33]: 96.4%
cell viability [1, 34]: 93.8%
cell viability [1, 35]: 89.6%
cell viability [1, 36]: 80.4%
cell viability [1, 37]: 60.7%
cell viability [1, 38]: 54.1%
cell viability [1, 39]: 4.26%
cell viability [2, 7]: 88.6%
cell viability [2, 8]: 97.4%
cell viability [2, 9]: 102%
cell viability [2, 10]: 95.2%
cell viability [2, 11]: 111%
cell viability [2, 12]: 106%
cell viability [2, 13]: 108%
cell viability [2, 14]: 104%
cell viability [2, 15]: 96.9%
cell viability [2, 16]: 84.1%
cell viability [2, 17]: 3.45%
cell viability [2, 18]: 81.9%
cell viability [2, 19]: 102%
cell viability [2, 20]: 101%
cell viability [2, 21]: 107%
cell viability [2, 22]: 103%
cell viability [2, 23]: 98.1%
cell viability [2, 24]: 99.9%
cell viability [2, 25]: 95.9%
cell viability [2, 26]: 77.8%
cell viability [2, 27]: 64.6%
cell viability [2, 28]: 2.33%
cell viability [2, 29]: 91.3%
cell viability [2, 30]: 104%
cell viability [2, 31]: 98.8%
cell viability [2, 32]: 94.7%
cell viability [2, 33]: 103%
cell viability [2, 34]: 97.9%
cell viability [2, 35]: 100%
cell viability [2, 36]: 88%
cell viability [2, 37]: 74.9%
cell viability [2, 38]: 54.9%
cell viability [2, 39]: 4.65%
cell viability [3, 7]: 81.4%
cell viability [3, 8]: 83.3%
cell viability [3, 9]: 87.8%
cell viability [3, 10]: 96.1%
cell viability [3, 11]: 82.2%
cell viability [3, 12]: 104%
cell viability [3, 13]: 97.6%
cell viability [3, 14]: 84.1%
cell viability [3, 15]: 66.5%
cell viability [3, 16]: 13.3%
cell viability [3, 17]: 3.39%
cell viability [3, 18]: 103%
cell viability [3, 19]: 109%
cell viability [3, 20]: 107%
cell viability [3, 21]: 104%
cell viability [3, 22]: 97.6%
cell viability [3, 23]: 108%
cell viability [3, 24]: 120%
cell viability [3, 25]: 92.9%
cell viability [3, 26]: 43%
cell viability [3, 27]: 6.28%
cell viability [3, 28]: 3.46%
cell viability [3, 29]: 74.8%
cell viability [3, 30]: 85.1%
cell viability [3, 31]: 94.3%
cell viability [3, 32]: 76.9%
cell viability [3, 33]: 88.5%
cell viability [3, 34]: 88.8%
cell viability [3, 35]: 99.4%
cell viability [3, 36]: 86%
cell viability [3, 37]: 69%
cell viability [3, 38]: 13.2%
cell viability [3, 39]: 2.73%
AUC of viability dose-response curve ([4]; HPLM + 10% dialyzed FBS): 381
AUC of viability dose-response curve ([4]; RPMI 5 mM glucose + 10% FBS): 393
AUC of viability dose-response curve [4, 40]: 372
AUC of viability dose-response curve ([5]; HPLM + 10% dialyzed FBS): 445
AUC of viability dose-response curve ([5]; RPMI 5 mM glucose + 10% FBS): 421
AUC of viability dose-response curve [5, 40]: 410
AUC of viability dose-response curve ([6]; HPLM + 10% dialyzed FBS): 360
AUC of viability dose-response curve ([6]; RPMI 5 mM glucose + 10% FBS): 375
AUC of viability dose-response curve [6, 40]: 350
